Source: patent US5023358A, “Vanadyl organo-mineral compound, method for obtaining such a compound, pharmaceutical composition containing this organo-mineral compound” (Panmedica S.A., priority 1987, dated 1991)

Tests used:
insulin receptor = details: intra-cellular, vanadyl (V^4+) form; cited from earlier work
Na^+ /K^+ ATP ase enzyme = details: absorption mechanisms; cited from earlier work
diabetic rats [1] = details: cited from earlier work
[2] = system: male rats of the WISTAR strain; format: in vivo; details: oral, rat
From the text: First, the potential toxicity of the complex has been investigated.
The investigation has been carried out starting from the bimolecular vanadyl compound having one free amin group, of the general formula (II). After a unique oral administration to the rat, the measured toxicity of the compound of formula (II) on the one hand and of the vanadyl sulfate on the other hand have been compared.
The procedure of the toxicological tests is as follows.
On the one hand, the toxicity of the compound (II) is examined by administering orally increasing doses of compound (II), up to 1 g/kg, to a group of 10 male rats of the WISTAR strain with a mean weight of 150 g. A quantity of 10 ml/kg of a suspension of compound (II) in 3% gum arabic is administered, by forcible feeding, to animals which have not been fed. Then, the animals are examined for 14 days, in order to count for the deaths and to search and observe the signs of toxicity.
On the other hand, the acute toxicity of the vanadyl sulfate (VOSO4) is contemplated under similar conditions on animals divided into 7 groups of 10 animals to which the following doses have been administered: 300, 400, 500, 600, 800, 1000 and 1500 mg/kg.
The lethal dose (LD50) has been calculated by the method of […] AND WILCOXON.

diabetic rats [3] = assay: Glycemia of diabetic (streptozotocin) and non-diabetic rats after a unique oral administration; format: in vivo, rat
From the text: Then, the anti-diabetic activity of the above described complex of vanadyl and cystein has been examined.
The examination has been performed also starting from the compound with the formula (II). The activity of this compound has been compared on diabetic rats and on non-diabetic rats, and the activity of this compound (II) has be compared with that of the vanadyl sulfate.
Tests have been carried out on animals having a glycemia higher than 3 g/l.
The method is as follows. Diabetes is induced by intraveinous injection of a unique dose of streptozotocin of about 50 mg/kg, on male or female rats of the WISTAR strain with a mean weight of 200 g. The glycemia is measured 4 days after the injection.
The procedure of the pharmacological tests is as follows. A quantity of 45 mg/kg of compound (II) is administered by forcible feeding (doses of 10 ml/kg) to animals which have been fed, in the form of a suspension in a 3% solution of gum arabic. A dose of vanadyl sulfate equimolar to 45 mg/kg of compound (II) is administered.
The glycemia is measured by quantitative analysis. Blood is sampled from the tail of the animal. The glycemia is measured by means of a device named "AMES glucometer" (trade-mark). The rate of glycemia is read on "Derotrostix" dipsticks (trade-mark) of the aforesaid device.

diabetic rats [4] = details: oral, cited from earlier work
[5] = 45 mg/kg compound (II) or equimolar vanadyl sulfate

[O]=[V+2] [vanadyl (V^4+)]
effect on phosphorylation of the insulin receptor (insulin receptor): facilitating or inducing the phosphorylation of the insulin receptor

[O]=[V]([O-])([O-])[O-] [vanadate]
effect on Na+/K+ ATPase (Na^+ /K^+ ATP ase enzyme): inhibiting the Na^+ /K^+ ATP ase enzyme

sodium vanadate
effect on cardiac function impairment associated to diabetes (diabetic rats [1]; in drink water, diabetic rats): the impairing of the cardiac function associated to diabetes is prevented
effect on glycemia of diabetic rats (diabetic rats [1]; in drink water, diabetic rats): the glycemia of the rats is normalized
anti-diabetic effect, taken orally (diabetic rats [1]; oral): has an anti-diabetic effect

O=S(=O)([O-])[O-].[O]=[V+2] [vanadyl sulfate]
signs of toxicity at the higher doses ([2]; 800, 1000 and 1500 mg/kg): an hypothermia and cases of chromodacryorrhoea
dose of first signs of toxicity ([2]; unique administration): 400 mg/kg
LD50 ([2]; unique administration, 20160 min): 600 mg/kg
signs of toxicity ([2]; unique administration, general and from 400 mg/kg): diarrhoea with a variable seriousness, a decrease of the motor activity and a loss of flesh
duration of the drop of glycemia (diabetic rats [3]; [5]): ≤ 2 h
effect on glycemia (diabetic rats [3]; [5]): weaker and transitory decrease of the glycemia
maximal decrease of glycemia (diabetic rats [3]; vanadyl sulfate equimolar to 45 mg/kg of compound (II)): about 1 g/l
acute toxicity (diabetic rats [4]; diabetic rats): presents an acute toxicity
anti-diabetic effect in diabetic rats (diabetic rats [4]): has an anti-diabetic effect
